From patent US5458814A, “Substituted naphthopyrans” (Transitions Optical, Inc., priority 1993, dated 1995)

Experiment: Photochromic response on optical bench (lambda max, sensitivity, saturation optical density, bleach rate) of naphthopyrans imbibed into test square polymerizates
Type: physicochemical
Conditions: for BLEACH RATE T1/2: time for absorbance to reach one half the highest absorbance after removal of activating light, 75° F., 23.9° C.; for Δ OD @ SATURATION: UV exposure continued for 20 minutes; for Δ OD @ SATURATION / Δ OD/Min SENSITIVITY: diethylene glycol bis(allyl carbonate), 75° F. (23.9° C.); for Δ OD/Min SENSITIVITY: first five (5) seconds of UV exposure, expressed on a per minute basis; for LAMBDA MAX of the activated (colored) form in the visible spectrum: imbibed into diethylene glycol bis(allyl carbonate) composition
Experimental: Testing was done with selected photochromic naphthopyrans incorporated into test square polymerizates by one of two different imbibition processes. The test square polymerizates were prepared from a diethylene glycol bis(allyl carbonate) composition and measured 1/8 inch (0.3 centimeters)×2 inches (5.1 centimeters)×2 inches (5.1 centimeters). In one of the imbibition processes, the photochromic naphthopyran was dissolved to form a 10 weight percent solution in a 1:9 mixture of ethyl cellulose:toluene. The solution was then spin coated onto the test squares and allowed to dry. […] After cooling, the ethyl cellulose/toluene resin film was removed from the test squares by washing with acetone.
Alternatively, the test squares were imbibed by the following procedure. Each naphthopyran was dissolved into toluene to form a four (4) weight percent solution of the compound. A piece of No. 4 Whatman filter paper was saturated with the naphthopyran toluene solution and allowed to air dry. The dried filter paper was placed on one side of the test square. A piece of untreated filter paper was placed on the other side of the polymeric test square and the resulting sandwich was placed between two flat aluminum metal plates. […] After cooling, the test squares were washed with acetone.
The photochromic squares were tested for photochromic response rates on an optical bench. […] The bench was fitted with a 150 watt Xenon arc lamp, a remote controlled shutter, a copper sulfate bath acting as a heat sink for the arc lamp, a Schott WG-320 nm cut-off filter which removes short wavelength radiation; neutral density filter(s) and a sample holder in which the square to be tested was inserted. A collimated beam of light from a tungsten lamp was passed through the square at a small angle normal to the square. After passing through the square, the light from the tungsten lamp was directed through a photopic filter attached to a detector. The photopic filter passes wavelengths such that the detector mimics the response of the human eye. The output signals from the detector(s) were processed by a radiometer.
Change in optical density (ΔOD) was determined by inserting an imbibed square in the bleached state into the sample holder, adjusting the transmittance scale to 100%, opening the shutter from the Xenon lamp to provide ultraviolet radiation to change the imbibed square from the bleached state to an activated (i.e., darkened) state, measuring the transmittance in the activated state, and calculating the change in optical density according to the formula ΔOD=log(100% Ta) where % Ta is the percent transmittance in the activated state and the logarithm is to the base 10.
The ΔOD/Min, which represents the sensitivity of the photochromic compound's response to UV light, was measured over the first five (5) seconds of UV exposure, then expressed on a per minute basis. The saturation optical density (OD) was taken under identical conditions as the ΔOD/Min, except UV exposure was continued for 20 minutes for the examples in Table 1. The lambda max reported in Table 1 is the wavelength in the visible spectrum at which the maximum absorption of the activated (colored) form of the photochromic compound in a diethylene glycol bis(allyl carbonate) composition occurs.

| BLEACH RATE T1/2 (Table 2 comparison) [min] | SMILES | BLEACH RATE T1/2 (Table 1) [min] | Δ OD @ SATURATION | Δ OD/Min SENSITIVITY | LAMBDA MAX of the activated (colored) form in the visible spectrum [nm] |
| --- | --- | --- | --- | --- | --- |
| > 30 | C1=CC(c2ccccc2)(c2ccccc2)Oc2c1ccc1ccccc21 [Comparative Example 1, 2,2-diphenyl-[2H]-naphtho[1,2-b]pyran, reference compound] |  |  |  |  |
| 10.7 | Cc1cc2ccccc2c2c1C=CC(c1ccccc1)(c1ccccc1)O2 [Comparative Example 2, 2,2-diphenyl-5-methyl-[2H]-naphtho[1,2-b]pyran, reference compound] |  |  |  |  |
| 3.75 | C1=CC2(Oc3c1ccc1ccccc31)C1CC3CC(C1)CC2C3 (centres unmarked) [Comparative Example 3, 2,2-spiroadamantylene-[2H]-naphtho[1,2-b]pyran, reference compound] |  |  |  |  |
| > 30 | COc1ccc(C2(C(C)(C)C)C=Cc3ccc4ccccc4c3O2)cc1 (centres unmarked) [Comparative Example 4, 2-(4-methoxyphenyl)-2-t-butyl-[2H]naphtho[1,2-b]pyran, reference compound] |  |  |  |  |
|  | COC(=O)c1c2c(c3ccccc3c1O)OC(c1ccc(OC)cc1)(c1ccc(OC)cc1)C=C2 [Example 1, 2,2-bis(4-methoxyphenyl)-5-methoxycarbonyl-6-hydroxy-[2H]-naphtho[1,2-b]pyran] | 3.92 | 0.18 | 0.47 Δ OD/Min | 497 |
|  | COC(=O)c1c2c(c3ccccc3c1OC)OC(c1ccc(OC)cc1)(c1ccc(OC)cc1)C=C2 [Example 2, 2,2-bis(4-methoxyphenyl)-5-methoxycarbonyl-6-methoxy-[2H]-naphtho[1,2-b]pyran] | 5.08 | 0.48 | 0.81 Δ OD/Min | 510 |
|  | CCOC(=O)COc1c(C(=O)OC)c2c(c3ccccc13)OC(c1ccc(OC)cc1)(c1ccc(OC)cc1)C=C2 [Example 3, 2,2-bis(4-methoxyphenyl)-5-methoxycarbonyl-6-ethoxycarbonylmethoxy-[2H]-naphtho[1,2-b]pyran] | 3.52 | 0.44 | 0.79 Δ OD/Min | 508 |
|  | COC(=O)c1c2c(c3ccccc3c1OCC#N)OC(c1ccccc1)(c1ccc(OC)cc1)C=C2 (centres unmarked) [Example 5, 2-(4-methoxyphenyl)-2-phenyl-5-methoxycarbonyl-6-(cyanomethoxy)-[2H]-naphtho [1,2-b]pyran] |  |  |  | 494 |
|  | COC(=O)Oc1c(C(=O)OC)c2c(c3ccccc13)OC(c1ccc(C)cc1)(c1ccc(C)cc1)C=C2 [Example 6, 2,2-bis(4-methylphenyl)-5-methoxycarbonyl-6-(methoxycarbonyloxy)-[2H]-naphtho[1,2-b]pyran] | 1.67 | 0.17 | 0.32 Δ OD/Min | 482 |
|  | COC(=O)c1c2c(c3ccccc3c1C)OC(c1ccc(OC)cc1)(c1ccc(OC)cc1)C=C2 [Example 8, 2,2-bis(4-methoxyphenyl)-5-methoxycarbonyl-6-methyl-[2H]-naphtho[1,2-b]pyran] | 3.62 | 0.42 | 0.63 Δ OD/Min | 476 |
|  | COC(=O)c1c2c(c3cc(OC)ccc3c1C)OC(c1ccc(OC)cc1)(c1ccc(OC)cc1)C=C2 [Example 9, 2,2-bis(4-methoxyphenyl)-5-methoxycarbonyl-6-methyl-9-methoxy-[2H]-naphtho[1,2-b]pyran] | 6.27 | 0.58 | 0.58 Δ OD/Min | 522 |
|  | CCC(=O)Oc1c(C(=O)OC)c2c(c3ccccc13)OC(c1ccccc1)(c1ccccc1)C=C2 [Example 10, 2,2-diphenyl-5-methoxycarbonyl-6-(propionyloxy)-[2H]-naphtho[1,2-b]pyran] | 4.28 | 0.19 | 0.39 Δ OD/Min | 470 |
|  | COC(=O)c1c2c(c3ccccc3c1OC(C)=O)OC(c1cccc(C(F)(F)F)c1)(c1cccc(C(F)(F)F)c1)C=C2 [Example 11, 2,2-bis(3-trifluoromethylphenyl)-5-methoxycarbonyl-6-acetoxy-[2H]-naphtho[1,2-b]pyran] | 3.63 | 0.08 | 0.15 Δ OD/Min | 455 |
|  | CCOC(=O)COc1c(C(=O)OC)c2c(c3ccccc13)OC(c1ccc(OC)cc1)(c1ccc3c(c1)CC(C)O3)C=C2 (centres unmarked) [Example 12, 2-(4-methoxyphenyl)-2-(2-methyl-2,3-dihydrobenzofur-5-yl)-5-methoxycarbonyl-6-ethoxycarbonylmethoxy-[2H]-naphtho[1,2-b]pyran] | 4.6 | 0.53 | 0.83 Δ OD/Min | 517 |
| 1.63 | COC(=O)c1c2c(c3ccccc3c1OC)OC1(C=C2)C2CC3CC(C2)CC1C3 (centres unmarked) [Example 13, 2,2'-spiroadamantylene-5-methoxycarbonyl-6-methoxy-[2H]-naphtho[1,2-b]pyran] |  |  |  |  |

| SMILES | BLEACH RATE T1/2 (Table 2 comparison) [min] | BLEACH RATE T1/2 (Table 1) [min] | Δ OD @ SATURATION | Δ OD/Min SENSITIVITY | LAMBDA MAX of the activated (colored) form in the visible spectrum [nm] |
| --- | --- | --- | --- | --- | --- |
| COC(=O)c1c2c(c3ccccc3c1OC(C)=O)OC(c1ccc(OC)cc1)(C(C)(C)C)C=C2 (centres unmarked) [Example 4, 2-(4-methoxyphenyl)-2-t-butyl-5-methoxycarbonyl-6-acetoxy-[2H]naphtho[1,2-b]pyran] | 7.22 |  |  |  |  |
| COC(=O)c1c2c(c3ccccc3c1OC(C)=O)OC(c1ccccc1)(c1ccccc1)C=C2 [Example 7, 2,2-diphenyl-5-methoxycarbonyl-6-acetoxy-[2H]-naphtho[1,2-b]pyran] | 3.67 |  |  |  |  |
